Assays:
HUVECs = test: Migration of HUVECs through polycarbonate filter chamber; format: cell-based, human; conditions: 37° C. for 10 hours, negative control (untreated) = 100
Description: In order to investigate the effect of the 4 peptides prepared in Example 1 on blood vessel formation, migration of HUVECs was measured.
The bottom portion of a chamber of a 24-well plate (Corning Costar, USA) having a polycarbonate filter with pores therebelow was coated with 0.5 mg/mL collagen type 1 ([…]). After adding EBM-2 containing the 4 peptides of the peptide of the present invention to the bottom portion of the chamber, HUVECs were inoculated at the upper portion of the chamber, with 1×10^5 cells per well. After incubation at 37° C. for 10 hours, the cells that had passed through the polycarbonate filter were fixed with methanol, stained with hematoxylin, and counted under a microscope.

[1] = test system: human umbilical vein endothelial cells (HUVECs); test: Proliferation of HUVECs (CyQUANT kit); format: cell-based; conditions: 48 hours with peptide, negative control (untreated) = 100
Description: In order to investigate the effect of the 4 peptides prepared in Example 1 on blood vessel formation, human umbilical vein endothelial cells (HUVECs) were treated with the peptide of the present invention and their proliferation was observed.
HUVECs were cultured in endothelial cell basal medium-2 (EBM-2, Clonetics Co., San Diego, USA) containing 2% fetal bovine serum (FBS). The cultured HUVECs were transferred to a 96-well plate, with 1000 cells per each well. After culturing for 24 hours followed by addition of the 4 peptides of the peptide of the present invention to each well, they were further cultured for 48 hours. The cells treated with VEGF instead of the peptide of the present invention and those treated with nothing were cultured under the same condition, as positive control group and negative control group, respectively. Upon completion of the culturing, the degree of cell proliferation was measured using the CyQUANT kit (Invitrogen, USA).

| Substance | Cell migration (%) (HUVECs) | Cell proliferation (%) [1] [%] |
| --- | --- | --- |
| NQES (Pep_10 Artificial Peptide for Promotion of Angiogenesis) | 173.2 | 146.5 |
| PKES (Pep_9 Artificial Peptide for Promotion of Angiogenesis) | 156.4 | 212.5 |
| SDRGA (Pep_8 Artificial Peptide for Promotion of Angiogenesis) | 147.0 | 209.2 |
| SEGQK (Pep_7 Artificial Peptide for Promotion of Angiogenesis) | 155.4 | 203.3 |
| VEGF | 146.3 | 166.0 |

— patent publication US9938320B2, “Peptides for promoting angiogenesis and use thereof” (INDUSTRY-ACADEMIC COOPERATION FOUNDATION, SOOKMYUNG WOMEN'S …, priority 2010, dated 2018)
